The source made the active and inactive calls. Unless noted, no cut-off for these calls is given here.
Tests used:
[1] = A Cell-Based Confirmatory Screen for Compounds that Inhibit VEEV, TC-83 (8).; format: functional
[2] = A Cell-Based Confirmatory Screen for Compounds that Inhibit VEEV, TC-83 (5).; format: functional
[3] = biological target: NAD-dependent protein deacylase sirtuin-5, mitochondrial (Homo sapiens, UniProt Q9NXA8); experiment: SIRT5 deacylase inhibitors, dose response, biochemical, fluorescence imaging, cherry-pick, set 6 (AID 720597)
NAD-dependent protein deacylase sirtuin-5, mitochondrial, sequence (Q9NXA8 whole entry): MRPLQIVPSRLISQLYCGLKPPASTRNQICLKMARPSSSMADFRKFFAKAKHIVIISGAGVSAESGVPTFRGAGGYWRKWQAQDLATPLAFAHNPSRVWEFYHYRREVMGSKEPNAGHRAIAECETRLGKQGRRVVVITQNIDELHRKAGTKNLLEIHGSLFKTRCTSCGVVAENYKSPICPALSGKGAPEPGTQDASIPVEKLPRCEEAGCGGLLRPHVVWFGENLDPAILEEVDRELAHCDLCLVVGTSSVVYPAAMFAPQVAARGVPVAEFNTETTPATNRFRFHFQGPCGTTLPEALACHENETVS

[4] = HEK293T cell cytotoxicity, dose response, cytotoxicity control, CellTiter-Glo luminescence, dry powder, set 6 (AID 651949); format: functional, cell-based; conditions: HEK293
[5] = cytotoxicity in HepG2 cells, dose response, cytotoxicity control, cell-based, plate reader, dry powder (AID 651947); format: functional
[6] = HepG2 cell cytotoxicity, dose response, cytotoxicity control, cherry-picked samples (AID 1159577); format: functional, cell-based
[7] = P. falciparum Dd2 growth inhibitors, dose response, SYBR Green, cherry-picked samples (AID 1159567); format: functional, cell-based
[8] = cytotoxicity in A549 cells, dose response, cytotoxicity control, cell-based, cherry-picked samples (AID 1053184); format: functional
[9] = cytotoxicity in HepG2 cells, dose response, cytotoxicity control, cell-based, cherry-picked samples (AID 1053183); format: functional
[10] = cytotoxicity in HEK293 cells, dose response, cytotoxicity control, cell-based, cherry-picked samples (AID 1053185); format: functional
[11] = biological target: Delta-type opioid receptor (Homo sapiens, UniProt P41143); experiment: Late-stage results from the probe development effort to identify antagonists of OPRK1: fluorescence-based cell-based dose response OPRD1 counterscreen.; format: functional
Delta-type opioid receptor, sequence (P41143 whole entry): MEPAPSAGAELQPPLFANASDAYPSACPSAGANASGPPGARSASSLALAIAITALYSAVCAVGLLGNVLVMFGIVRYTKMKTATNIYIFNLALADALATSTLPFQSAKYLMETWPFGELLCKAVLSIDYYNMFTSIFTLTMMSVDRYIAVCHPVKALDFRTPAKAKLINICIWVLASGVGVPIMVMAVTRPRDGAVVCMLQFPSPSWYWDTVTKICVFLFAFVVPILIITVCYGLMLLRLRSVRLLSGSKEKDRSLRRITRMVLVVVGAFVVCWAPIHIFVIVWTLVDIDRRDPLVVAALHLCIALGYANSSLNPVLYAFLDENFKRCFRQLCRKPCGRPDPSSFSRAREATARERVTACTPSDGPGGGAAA

[12] = biological target: Mu-type opioid receptor (Homo sapiens, UniProt P35372); experiment: Late-stage results from the probe development effort to identify antagonists of OPRK1: luminescence-based cell-based dose response OPRM1 counterscreen.; format: functional
Mu-type opioid receptor, sequence (P35372 whole entry): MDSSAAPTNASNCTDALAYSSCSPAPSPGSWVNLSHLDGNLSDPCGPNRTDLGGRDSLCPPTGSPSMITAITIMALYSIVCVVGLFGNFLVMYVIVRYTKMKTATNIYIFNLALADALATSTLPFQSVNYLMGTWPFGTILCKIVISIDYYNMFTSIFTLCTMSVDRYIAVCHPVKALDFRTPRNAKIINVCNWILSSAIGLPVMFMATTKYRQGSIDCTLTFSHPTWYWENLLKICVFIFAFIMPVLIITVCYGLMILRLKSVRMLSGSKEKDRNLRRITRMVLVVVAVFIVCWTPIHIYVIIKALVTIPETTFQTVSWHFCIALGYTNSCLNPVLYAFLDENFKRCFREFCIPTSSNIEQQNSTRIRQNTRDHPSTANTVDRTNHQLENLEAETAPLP

[13] = inhibitors of non-replicating M. tuberculosis, dose response, luciferase, dry powder (AID 651620); format: functional; conditions: Mycobacterium tuberculosis
[14] = cytotoxicity in HeLa cells, dose response, cytotoxicity control, cell-based, plate reader, dry powder (AID 651946); format: functional
[15] = inhibitors of non-replicating M. tuberculosis, dose response, luciferase, dry powder (AID 651619); format: functional; conditions: Mycobacterium tuberculosis
[16] = biological target: Endoplasmic reticulum aminopeptidase 1 (Homo sapiens, UniProt Q9NZ08); experiment: ERAP1 aminopeptidase inhibitors, dose response, biochemical, cherry-pick, set 2, plate reader (AID 743314)
Endoplasmic reticulum aminopeptidase 1, sequence (Q9NZ08 whole entry): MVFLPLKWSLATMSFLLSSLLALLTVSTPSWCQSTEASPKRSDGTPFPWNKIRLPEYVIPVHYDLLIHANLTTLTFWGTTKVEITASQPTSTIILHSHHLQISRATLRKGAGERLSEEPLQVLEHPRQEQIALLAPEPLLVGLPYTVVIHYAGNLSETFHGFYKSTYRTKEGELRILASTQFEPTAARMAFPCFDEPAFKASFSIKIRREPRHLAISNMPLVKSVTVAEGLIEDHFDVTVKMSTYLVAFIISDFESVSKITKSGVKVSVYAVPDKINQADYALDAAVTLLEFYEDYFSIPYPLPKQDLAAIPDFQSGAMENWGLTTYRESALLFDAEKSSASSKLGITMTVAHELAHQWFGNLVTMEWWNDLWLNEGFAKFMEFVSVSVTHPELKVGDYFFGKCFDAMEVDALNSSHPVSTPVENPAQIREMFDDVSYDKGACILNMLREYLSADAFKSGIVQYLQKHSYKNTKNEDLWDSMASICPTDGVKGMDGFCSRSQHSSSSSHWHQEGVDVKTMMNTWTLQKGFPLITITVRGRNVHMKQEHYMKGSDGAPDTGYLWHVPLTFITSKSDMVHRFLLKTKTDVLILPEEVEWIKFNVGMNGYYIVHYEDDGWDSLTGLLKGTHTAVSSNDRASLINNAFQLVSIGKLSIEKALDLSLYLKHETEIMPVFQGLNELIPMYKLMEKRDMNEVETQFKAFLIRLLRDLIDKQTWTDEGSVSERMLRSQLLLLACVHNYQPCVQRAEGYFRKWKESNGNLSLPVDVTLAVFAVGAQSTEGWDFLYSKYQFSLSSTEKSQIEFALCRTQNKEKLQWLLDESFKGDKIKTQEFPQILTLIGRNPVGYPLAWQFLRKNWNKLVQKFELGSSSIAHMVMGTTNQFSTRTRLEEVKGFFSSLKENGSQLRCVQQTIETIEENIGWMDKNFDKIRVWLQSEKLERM

[17] = biological target: Endoplasmic reticulum aminopeptidase 2 (Homo sapiens, UniProt Q6P179); experiment: ERAP2 aminopeptidase inhibitors, dose response, selectivity assay for selective ERAP1 modulator project, biochemical, fluorescence plate reader, cherry-picked, set 2 (AID 743320)
Endoplasmic reticulum aminopeptidase 2, sequence (Q6P179 whole entry): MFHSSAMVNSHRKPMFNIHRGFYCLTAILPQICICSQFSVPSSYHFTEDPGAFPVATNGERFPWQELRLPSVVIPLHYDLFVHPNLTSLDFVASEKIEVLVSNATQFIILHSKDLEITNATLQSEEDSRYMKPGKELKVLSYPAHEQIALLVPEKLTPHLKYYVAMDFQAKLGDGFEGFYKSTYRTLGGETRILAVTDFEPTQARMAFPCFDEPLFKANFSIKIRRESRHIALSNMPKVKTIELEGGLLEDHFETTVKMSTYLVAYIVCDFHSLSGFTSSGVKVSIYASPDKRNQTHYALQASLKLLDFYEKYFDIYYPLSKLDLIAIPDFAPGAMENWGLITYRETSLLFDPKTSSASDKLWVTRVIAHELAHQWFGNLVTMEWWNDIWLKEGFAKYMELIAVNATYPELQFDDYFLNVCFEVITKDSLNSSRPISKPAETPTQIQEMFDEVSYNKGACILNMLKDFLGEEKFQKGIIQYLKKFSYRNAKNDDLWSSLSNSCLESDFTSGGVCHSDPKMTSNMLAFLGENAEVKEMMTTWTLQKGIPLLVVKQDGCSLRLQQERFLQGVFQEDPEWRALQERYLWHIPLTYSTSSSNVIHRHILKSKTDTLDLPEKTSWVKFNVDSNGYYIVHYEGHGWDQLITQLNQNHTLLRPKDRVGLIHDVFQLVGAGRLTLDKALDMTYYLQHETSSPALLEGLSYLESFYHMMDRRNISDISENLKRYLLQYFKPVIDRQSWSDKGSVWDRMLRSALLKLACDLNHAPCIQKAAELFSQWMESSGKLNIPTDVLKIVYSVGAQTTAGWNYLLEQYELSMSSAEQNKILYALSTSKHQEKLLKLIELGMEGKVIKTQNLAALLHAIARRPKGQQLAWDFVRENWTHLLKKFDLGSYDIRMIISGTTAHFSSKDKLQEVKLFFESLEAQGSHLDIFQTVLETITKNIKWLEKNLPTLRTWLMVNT

Compound: O=c1c2cc([N+](=O)[O-])ccc2nc(CN2CCNCC2)n1-c1ccccc1
- IC50 [1]: < 0.168 µM (active)
- IC50 [2]: 0.15 µM (active)

Compound: COCCNC(=O)C[C@@H]1CC[C@H]2[C@H](COc3ccc(NC(=O)Nc4cccc(F)c4)cc3C(=O)N2C)O1
- AC50 [3]: > 30 µM (inactive)

Compound: CS(=O)(=O)c1ccc(CSc2nnc(-c3ccccc3)o2)cc1
- AC50 [4]: 49 µM (active)
- AC50 [5]: 0.28 µM (active)

Compound: C(=C\c1ccc([C@@H]2[C@@H]3CN(Cc4ccc5c(c4)OCO5)C[C@H]2N3)cc1)/c1ccccc1
- AC50 [6]: 9.8 µM (active)
- AC50 [7]: 6.09 µM (active)
- AC50 [8]: > 12 µM (inactive)
- AC50 [9]: 17.1 µM (active)
- AC50 [10]: 17 µM (active)

Compound: COC(=O)c1cc(Br)cnc1N1CCC(NC2CCOCC2)CC1
- IC50 [11]: > 50 µM (inactive)
- IC50 [12]: 50 µM (inactive)

Compound: Brc1ccc(-c2nnc(SCc3ccccn3)o2)cc1
- IC90 [13]: 4 µM (active)
- AC50 [14]: > 52 µM (inactive)
- IC90 [15]: 4 µM (active)
- AC50 [5]: 5.42 µM (active)

Compound: CCC(=O)N(C)C[C@@H]1Oc2ncc(C#Cc3ccncc3)cc2C(=O)N([C@@H](C)CO)C[C@@H]1C
- AC50 [16]: 2.86 µM (active)
- AC50 [17]: 17.2 µM (active)

From ChEMBL document CHEMBL1201862, “PubChem BioAssay data set” (2004)
